The source of these data is patent US20260138976A1 (Hoffmann-La Roche Inc., priority 2022, published 2026).

Assay [1] has as its system primary human T-cells. Put plainly: IL2 secretion measurements (24 h, CD3-stimulated T-cells, PBS counter screen). Format: cell-based. The settings on record: for Emax IL2 (% activation): CD3 condition, normalised to DMSO (neutral) and 20 μM reference compound A1 = 100%; for EC50: Homo sapiens, T-cell, CD3-stimulated primary human T-cells, IL2 secretion, fitted sigmoidal curve, read-out: Tcell IL2 CD3 EC50. In outline: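 IL-2 secretion was measured by ProQuantum or ELISA after 24 h culture of expanded human T-cells with compound, on CD3-antibody-coated plates or PBS counter-screen plates. Dosing used 5–6 points from a 20 or 10 μM final top at 3.333-fold steps in 0.2% DMSO. EC50/Emax were scaled between DMSO and 20 μM reference A1.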
(Counterscreens check selectivity or assay interference.)

In assay [2] the test system is primary human T-cells. Put plainly: Proliferation assay (5 days, CellTiter-Glo, CD3-stimulated T-cells). The settings on record: for Emax proliferation (% activation): CD3 condition, normalised to DMSO (neutral) and 20 μM reference compound A1 = 100%; for EC50: Homo sapiens, T-cell, 120 h, CD3-stimulated primary human T-cells, 5 days, CellTiter-Glo, fitted sigmoidal curve, read-out: Tcell Proliferation CD3 EC50. Format: cell-based. In outline: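 Proliferation read-out: ATP luminescence (CellTiter-Glo 2.0) at day 5 in expanded primary human T-cells on CD3 antibody-coated plates, with PBS-only plates as a counter screen. Compounds in 5–6 pt series (factor 3.333, top 20 or 10 μM final). Values are normalized to DMSO (neutral) and 20 μM reference A1 (100%), from sigmoidal fits.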
For orientation: Cellular ATP, detected with luciferase, serves as a proxy for viable cell number.

Consider `N[C@H]1CS(=O)(=O)c2ccc(-c3nnc(N4CCOC(C(F)(F)F)C4)o3)cc2N(Cc2ccc(-c3ccc(C(F)(F)F)cc3)cc2)C1=O` (stereo partly drawn) [Example 73, (3R)-3-amino-1,1-dioxo-7-[5-[2-(trifluoromethyl)morpholin-4-yl]-1,3,4-oxadiazol-2-yl]-5-[[4-[4-(trifluoromethyl)phenyl]phenyl]methyl]-2,3-dihydro-1λ^6,5-benzothiazepin-4-one], for which, in assay [1], the “Emax IL2 (% activation)” value is 116 % activation and the EC50 came to 2530 nM. In addition, in assay [2], the “Emax proliferation (% activation)” value worked out at 95 % activation and the EC50 was 828 nM.

As to `N[C@H]1CS(=O)(=O)c2ccc(-c3nnc(N4CCC(F)(F)CC4)o3)cc2N(Cc2ccc(-c3nnc(C(F)(F)F)o3)cc2)C1=O` [Example 71, (3R)-3-amino-7-[5-(4,4-difluoro-1-piperidyl)-1,3,4-oxadiazol-2-yl]-1,1-dioxo-5-[[4-[5-(trifluoromethyl)-1,3,4-oxadiazol-2-yl]phenyl]methyl]-2,3-dihydro-1λ^6,5-benzothiazepin-4-one], in assay [1], the “Emax IL2 (% activation)” value turned out to be 111 % activation and the EC50 is 3260 nM. Further, in assay [2], the “Emax proliferation (% activation)” value amounted to 129 % activation and the EC50 was 2870 nM.

As to `Cn1ccc(-c2ccc(CN3C(=O)[C@@H](N)CS(=O)(=O)c4ccc(-c5nnc(C(C)(C)C)o5)cc43)cc2)n1` [Example 21], in assay [1], the “Emax IL2 (% activation)” value turned out to be 53 % activation and the EC50 was determined as 8010 nM. In addition, in assay [2], the “Emax proliferation (% activation)” value amounted to 63 % activation and the EC50 is 7060 nM.

`CC(C)(C#N)c1nnc(-c2ccc3c(c2)N(Cc2ccc(-c4ccc(C(F)(F)F)cn4)cc2)C(=O)[C@@H](N)CS3(=O)=O)o1` [Example 47]: in assay [1], the “Emax IL2 (% activation)” value was 163 % activation and the EC50 was found to be 670 nM. In assay [2], the “Emax proliferation (% activation)” value stood at 159 % activation and the EC50 is 459 nM.

On to `CC(C)(C)c1nnc(-c2ccc3c(c2)N(Cc2ccc(-n4cnc(C(F)(F)F)c4)cc2)C(=O)[C@@H](N)CS3(=O)=O)o1` [Example 28, (3R)-3-amino-7-(5-tert-butyl-1,3,4-oxadiazol-2-yl)-1,1-dioxo-5-[[4-[4-(trifluoromethyl)imidazol-1-yl]phenyl]methyl]-2,3-dihydro-1λ^6,5-benzothiazepin-4-one], for which, in assay [1], the “Emax IL2 (% activation)” value amounted to 81 % activation and the EC50 stood at 5010 nM. Also, in assay [2], the “Emax proliferation (% activation)” value is reported as 108 % activation and the EC50 worked out at 3510 nM.

Turning to `CC(C)(C#N)c1nnc(-c2ccc3c(c2)N(Cc2ccc(-c4ccc(OC(F)(F)F)cn4)cc2)C(=O)[C@@H](N)CS3(=O)=O)o1` [Example 124], in assay [1], the “Emax IL2 (% activation)” value is 154 % activation and the EC50 was determined as 278 nM. For the same compound, in assay [2], the “Emax proliferation (% activation)” value is 153 % activation and the EC50 is 114 nM.

Consider `N[C@H]1CS(=O)(=O)c2ccc(-c3nnc(N4CCOC(F)(F)C4)o3)cc2N(Cc2ccc(-c3noc(C(F)(F)F)n3)cc2)C1=O` [Example 78, (3R)-3-amino-7-[5-(2,2-difluoromorpholin-4-yl)-1,3,4-oxadiazol-2-yl]-1,1-dioxo-5-[[4-[5-(trifluoromethyl)-1,2,4-oxadiazol-3-yl]phenyl]methyl]-2,3-dihydro-1λ^6,5-benzothiazepin-4-one], for which, in assay [1], the “Emax IL2 (% activation)” value came out at 216 % activation and the EC50 is 2340 nM. In addition, in assay [2], the “Emax proliferation (% activation)” value stood at 150 % activation and the EC50 came to 1090 nM.

For the compound `N[C@H]1CS(=O)(=O)c2ccc(-c3nnc(N4CCOC(C(F)(F)F)C4)o3)cc2N(Cc2ccc(-c3noc(C(F)(F)F)n3)cc2)C1=O` (stereo partly drawn) [Example 74, (3R)-3-amino-1,1-dioxo-7-[5-[2-(trifluoromethyl)morpholin-4-yl]-1,3,4-oxadiazol-2-yl]-5-[[4-[5-(trifluoromethyl)-1,2,4-oxadiazol-3-yl]phenyl]methyl]-2,3-dihydro-1λ^6,5-benzothiazepin-4-one], in assay [1], the “Emax IL2 (% activation)” value was determined as 206 % activation and the EC50 worked out at 1460 nM. Besides, in assay [2], the “Emax proliferation (% activation)” value is given as 148 % activation and the EC50 stood at 527 nM.

Take `N[C@H]1CS(=O)(=O)c2ccc(-c3nnc(C4(CO)CCCO4)o3)cc2N(Cc2ccc(-c3ccc(C(F)(F)F)cc3)cc2)C1=O` (some centres unmarked) [Example 55]: in assay [1], the “Emax IL2 (% activation)” value is reported as 74 % activation and the EC50 turned out to be 3110 nM. In addition, in assay [2], the “Emax proliferation (% activation)” value was 59 % activation and the EC50 is 1090 nM.

Turning to `CC(C)(c1nnc(-c2ccc3c(c2)N(Cc2ccc(-c4noc(C5CC5)n4)cc2)C(=O)[C@@H](N)CS3(=O)=O)o1)C(F)(F)F` [Example 167, (3R)-3-amino-5-[[4-(5-cyclopropyl-1,2,4-oxadiazol-3-yl)phenyl]methyl]-1,1-dioxo-7-[5-(2,2,2-trifluoro-1,1-dimethyl-ethyl)-1,3,4-oxadiazol-2-yl]-2,3-dihydro-1λ^6,5-benzothiazepin-4-one], in assay [1], the “Emax IL2 (% activation)” value is on record as 279 % activation and the EC50 worked out at 635 nM. For the same compound, in assay [2], the “Emax proliferation (% activation)” value is given as 186 % activation and the EC50 is 629 nM.

On to `CC(C)(c1nnc(-c2ccc3c(c2)N(Cc2ccc(-c4noc(C(F)(F)F)n4)cc2)C(=O)[C@@H](N)CS3(=O)=O)o1)C(F)(F)F` [Example 166], for which, in assay [1], the “Emax IL2 (% activation)” value is 385 % activation and the EC50 came to 158 nM. In assay [2], the “Emax proliferation (% activation)” value was 164 % activation and the EC50 worked out at 75.9 nM.

Turning to `Cc1nc(F)ccc1-c1nc(-c2ccc3c(c2)N(Cc2ccc(-c4noc(C5CC5)n4)cc2)C(=O)[C@@H](N)CS3(=O)=O)no1` [Example 86, (3R)-3-amino-5-[[4-(5-cyclopropyl-1,2,4-oxadiazol-3-yl)phenyl]methyl]-7-[5-(6-fluoro-2-methyl-3-pyridyl)-1,2,4-oxadiazol-3-yl]-1,1-dioxo-2,3-dihydro-1λ^6,5-benzothiazepin-4-one], in assay [1], the “Emax IL2 (% activation)” value is recorded as 101 % activation and the EC50 is 4160 nM. Further, in assay [2], the “Emax proliferation (% activation)” value is listed as 99 % activation and the EC50 was found to be 1660 nM.

For the compound `COC(=O)N1CC2CC(c3nnc(-c4ccc5c(c4)N(Cc4ccc(-c6ccc(C(F)(F)F)cn6)cc4)C(=O)[C@@H](N)CS5(=O)=O)o3)(C2)C1` [Example 159, methyl 1-[5-[(3R)-3-amino-1,1,4-trioxo-5-[[4-[5-(trifluoromethyl)-2-pyridyl]phenyl]methyl]-2,3-dihydro-1λ^6,5-benzothiazepin-7-yl]-1,3,4-oxadiazol-2-yl]-3-azabicyclo[3.1.1]heptane-3-carboxylate], in assay [1], the “Emax IL2 (% activation)” value is recorded as 188 % activation and the EC50 was 912 nM. Also, in assay [2], the “Emax proliferation (% activation)” value worked out at 146 % activation and the EC50 was 152 nM.

As for `COc1ccc(-c2ccc(CN3C(=O)[C@@H](N)CS(=O)(=O)c4ccc(-c5nnc(N(C)CC(F)(F)F)o5)cc43)cc2)cc1` [Example 81, (3R)-3-amino-5-[[4-(4-methoxyphenyl)phenyl]methyl]-7-[5-[methyl(2,2,2-trifluoroethyl)amino]-1,3,4-oxadiazol-2-yl]-1,1-dioxo-2,3-dihydro-1λ^6,5-benzothiazepin-4-one], in assay [1], the “Emax IL2 (% activation)” value is on record as 66 % activation and the EC50 is 523 nM. Further, in assay [2], the “Emax proliferation (% activation)” value is 138 % activation and the EC50 came out at 728 nM.

`COC(=O)N1CC2CC(c3nnc(-c4ccc5c(c4)N(Cc4ccc(-c6ccc(OC)cc6)cc4)C(=O)[C@@H](N)CS5(=O)=O)o3)(C2)C1` [Example 59, methyl 1-[5-[(3R)-3-amino-5-[[4-(4-methoxyphenyl)phenyl]methyl]-1,1,4-trioxo-2,3-dihydro-1λ^6,5-benzothiazepin-7-yl]-1,3,4-oxadiazol-2-yl]-3-azabicyclo[3.1.1]heptane-3-carboxylate]: in assay [1], the “Emax IL2 (% activation)” value came to 175 % activation and the EC50 was determined as 596 nM. Besides, in assay [2], the “Emax proliferation (% activation)” value worked out at 103 % activation and the EC50 was 29 nM.

As to `COc1ccc(-c2ccc(CN3C(=O)[C@@H](N)CS(=O)(=O)c4ccc(-c5nnc(C6(CO)CCCO6)o5)cc43)cc2)cc1` (stereo partly drawn) [Example 63, (3R)-3-amino-7-[5-[2-(hydroxymethyl)tetrahydrofuran-2-yl]-1,3,4-oxadiazol-2-yl]-5-[[4-(4-methoxyphenyl)phenyl]methyl]-1,1-dioxo-2,3-dihydro-1λ^6,5-benzothiazepin-4-one], in assay [1], the “Emax IL2 (% activation)” value turned out to be 78 % activation and the EC50 was found to be 2410 nM. Moreover, in assay [2], the “Emax proliferation (% activation)” value is 103 % activation and the EC50 was 1060 nM.

For the compound `C[C@](N)(c1nnc(-c2ccc3c(c2)N(Cc2ccc(-c4noc(C(F)(F)F)n4)cc2)C(=O)[C@@H](N)CS3(=O)=O)o1)C(F)(F)F` [Example 53, (3R)-3-amino-7-[5-[(1S)-1-amino-2,2,2-trifluoro-1-methyl-ethyl]-1,3,4-oxadiazol-2-yl]-1,1-dioxo-5-[[4-[5-(trifluoromethyl)-1,2,4-oxadiazol-3-yl]phenyl]methyl]-2,3-dihydro-1λ^6,5-benzothiazepin-4-one], in assay [1], the “Emax IL2 (% activation)” value came out at 187 % activation and the EC50 was 2070 nM. In addition, in assay [2], the “Emax proliferation (% activation)” value was determined as 120 % activation and the EC50 came to 2220 nM.
